Numbers after ± are expanded uncertainties.
Legend:
[1] = xn = mol fraction of the nth substance listed; details: 101 kPa, Liquid, x1 = 1
[2] = 101 kPa, Liquid
[3] = refractive index (Na D-line) (dimensionless); details: 101.33 kPa, Liquid

SMILES | mass density ([1]; 298.15 K) | mass density ([1]; 303.15 K) | mass density ([1]; 308.15 K) | mass density ([1]; 313.15 K) | mass density ([1]; 318.15 K) | mass density ([2]; 298.15 K) | mass density ([2]; 303.15 K) | mass density ([2]; 308.15 K) | mass density ([2]; 313.15 K) | mass density ([2]; 318.15 K) | refractive index ([3]; 298.15 K) | refractive index ([3]; 303.15 K) | refractive index ([3]; 308.15 K) | refractive index ([3]; 313.15 K) | refractive index ([3]; 318.15 K)
CCN(CC)CC [triethylamine] |  |  |  |  |  | 723.4 ± 1.9 kg/m3 | 717.9 ± 2.1 kg/m3 | 712.9 ± 2.2 kg/m3 | 708.3 ± 2.3 kg/m3 | 701.6 ± 2.4 kg/m3 | 1.4011 ± 0.0019 | 1.3983 ± 0.0019 | 1.395 ± 0.0019 | 1.3928 ± 0.0019 | 1.3898 ± 0.0019
CCCCN(CCCC)CCCC [tributylamine] |  |  |  |  |  | 774.3 ± 2.1 kg/m3 | 770.8 ± 2.3 kg/m3 | 767.2 ± 2.4 kg/m3 | 763.6 ± 2.5 kg/m3 | 759.8 ± 2.6 kg/m3 | 1.4274 ± 0.0019 | 1.4259 ± 0.0019 | 1.4231 ± 0.0019 | 1.421 ± 0.0019 | 1.4188 ± 0.0019

The remaining lines, values ahead:

mass density ([1]; 298.15 K) | mass density ([1]; 303.15 K) | mass density ([1]; 308.15 K) | mass density ([1]; 313.15 K) | mass density ([1]; 318.15 K) | mass density ([2]; 298.15 K) | mass density ([2]; 303.15 K) | mass density ([2]; 308.15 K) | mass density ([2]; 313.15 K) | mass density ([2]; 318.15 K) | refractive index ([3]; 298.15 K) | refractive index ([3]; 303.15 K) | refractive index ([3]; 308.15 K) | refractive index ([3]; 313.15 K) | refractive index ([3]; 318.15 K) | SMILES
873.6 ± 2.5 kg/m3 | 870.8 ± 2.6 kg/m3 | 865.7 ± 2.7 kg/m3 | 861 ± 2.9 kg/m3 | 856.3 ± 3 kg/m3 |  |  |  |  |  |  |  |  |  |  | c1ccccc1 [benzene] + CCN(CC)CC
 |  |  |  |  | 873.6 ± 2.5 kg/m3 | 870.8 ± 2.6 kg/m3 | 865.7 ± 2.7 kg/m3 | 861 ± 2.9 kg/m3 | 856.3 ± 3 kg/m3 | 1.4979 ± 0.0019 | 1.4962 ± 0.0019 | 1.4944 ± 0.0019 | 1.4929 ± 0.0019 | 1.4911 ± 0.0019 | c1ccccc1 [benzene]
873.6 ± 2.5 kg/m3 | 870.8 ± 2.6 kg/m3 | 865.7 ± 2.7 kg/m3 | 861 ± 2.9 kg/m3 | 856.3 ± 3 kg/m3 |  |  |  |  |  |  |  |  |  |  | c1ccccc1 [benzene] + CCCCN(CCCC)CCCC

From the NIST ThermoML archive (doi:10.1007/s10765-006-0095-5)
